Results as given in ChEMBL document CHEMBL1157712, “Hit to lead account of the discovery of bisbenzamide and related ureidobenzamide inhibitors of Rho kinase” (J Med Chem, 2010).
Values after ≈ are worked out from the molar mass of the structure shown.

Tests used:
[1] = target: Serine/threonine-protein kinase N2 (Homo sapiens, UniProt Q16513); assay: Inhibition of PRK2; values are per cent of control
[2] = target: Cyclin-dependent kinase 2 (Homo sapiens) (UniProt P24941); assay: Inhibition of CDK2 at 3 uM relative to control; values are per cent of control
[3] = target: SRSF protein kinase 1 (Homo sapiens) (UniProt Q96SB4); assay: Inhibition of SRPK1 at 3 uM relative to control; values are per cent of control
SRSF protein kinase 1 (Homo sapiens), sequence (Q96SB4 whole entry): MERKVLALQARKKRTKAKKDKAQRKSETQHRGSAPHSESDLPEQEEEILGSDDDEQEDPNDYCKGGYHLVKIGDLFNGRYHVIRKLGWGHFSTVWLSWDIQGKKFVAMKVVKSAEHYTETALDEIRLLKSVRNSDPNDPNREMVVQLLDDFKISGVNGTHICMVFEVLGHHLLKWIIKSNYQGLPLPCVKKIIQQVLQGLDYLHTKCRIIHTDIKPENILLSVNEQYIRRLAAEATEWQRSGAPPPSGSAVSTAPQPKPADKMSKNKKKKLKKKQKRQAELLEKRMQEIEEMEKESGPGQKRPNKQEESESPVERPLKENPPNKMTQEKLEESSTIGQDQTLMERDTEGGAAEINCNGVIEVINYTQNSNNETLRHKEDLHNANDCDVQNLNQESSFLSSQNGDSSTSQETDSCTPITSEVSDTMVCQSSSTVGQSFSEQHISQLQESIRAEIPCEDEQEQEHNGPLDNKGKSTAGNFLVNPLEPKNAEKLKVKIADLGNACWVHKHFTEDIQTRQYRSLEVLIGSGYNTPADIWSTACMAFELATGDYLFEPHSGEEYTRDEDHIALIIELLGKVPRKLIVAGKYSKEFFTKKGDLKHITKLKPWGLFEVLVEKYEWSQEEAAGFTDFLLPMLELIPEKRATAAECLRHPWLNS

[4] = target: Ribosomal protein S6 kinase alpha-3 (Homo sapiens) (UniProt P51812); assay: Inhibition of MAPKAPK1b at 3 uM relative to control; values are per cent of control
Ribosomal protein S6 kinase alpha-3 (Homo sapiens), sequence (P51812 whole entry): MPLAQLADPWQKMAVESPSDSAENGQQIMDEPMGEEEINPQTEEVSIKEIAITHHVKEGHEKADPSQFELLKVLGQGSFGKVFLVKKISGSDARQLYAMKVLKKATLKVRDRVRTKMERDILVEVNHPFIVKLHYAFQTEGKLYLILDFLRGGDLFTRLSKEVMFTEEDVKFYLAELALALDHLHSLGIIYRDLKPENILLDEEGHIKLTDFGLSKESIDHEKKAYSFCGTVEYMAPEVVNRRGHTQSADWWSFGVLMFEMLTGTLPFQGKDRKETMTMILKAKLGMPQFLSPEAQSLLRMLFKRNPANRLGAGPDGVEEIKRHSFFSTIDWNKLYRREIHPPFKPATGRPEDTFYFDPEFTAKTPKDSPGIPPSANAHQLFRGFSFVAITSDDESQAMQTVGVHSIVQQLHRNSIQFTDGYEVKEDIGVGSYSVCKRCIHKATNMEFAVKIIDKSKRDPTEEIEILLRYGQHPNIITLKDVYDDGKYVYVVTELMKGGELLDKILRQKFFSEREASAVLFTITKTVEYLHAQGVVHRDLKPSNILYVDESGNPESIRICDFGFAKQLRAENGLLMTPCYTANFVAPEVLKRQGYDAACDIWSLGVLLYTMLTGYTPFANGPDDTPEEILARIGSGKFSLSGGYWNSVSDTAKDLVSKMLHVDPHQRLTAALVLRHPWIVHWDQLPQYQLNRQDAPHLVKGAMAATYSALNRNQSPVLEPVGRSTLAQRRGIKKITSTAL

[5] = target: Serine/threonine-protein kinase Chk2 (Homo sapiens) (UniProt O96017); assay: Inhibition of CHK2 at 3 uM relative to control; values are per cent of control
Serine/threonine-protein kinase Chk2 (Homo sapiens), sequence (O96017 whole entry): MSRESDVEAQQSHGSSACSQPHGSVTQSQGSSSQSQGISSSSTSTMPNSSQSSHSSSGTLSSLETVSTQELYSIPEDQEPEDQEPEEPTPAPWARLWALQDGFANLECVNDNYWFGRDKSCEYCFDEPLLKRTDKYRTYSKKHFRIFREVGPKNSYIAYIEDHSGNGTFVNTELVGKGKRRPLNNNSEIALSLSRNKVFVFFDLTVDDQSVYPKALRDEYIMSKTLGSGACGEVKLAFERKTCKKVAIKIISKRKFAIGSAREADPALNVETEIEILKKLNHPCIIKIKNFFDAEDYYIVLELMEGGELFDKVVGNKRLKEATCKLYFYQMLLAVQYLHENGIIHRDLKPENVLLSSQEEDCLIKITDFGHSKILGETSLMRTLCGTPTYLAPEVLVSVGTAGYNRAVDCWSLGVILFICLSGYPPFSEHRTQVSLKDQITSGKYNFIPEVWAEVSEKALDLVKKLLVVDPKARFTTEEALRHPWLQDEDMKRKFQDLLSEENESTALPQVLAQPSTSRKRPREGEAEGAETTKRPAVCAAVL

[6] = target: Serine/threonine-protein kinase Chk1 (Homo sapiens) (UniProt O14757); assay: Inhibition of CHK1 at 3 uM relative to control; values are per cent of control
[7] = target: Mitogen-activated protein kinase 8 (Homo sapiens) (UniProt P45983); assay: Inhibition of JNK1a1 at 3 uM relative to control; values are per cent of control
[8] = target: Serine/threonine-protein kinase Nek7 (Homo sapiens) (UniProt Q8TDX7); assay: Inhibition of NEK7 at 3 uM relative to control; values are per cent of control
[9] = target: Glycogen synthase kinase-3 beta (Homo sapiens) (UniProt P49841); conditions: 3 to 6 uM
Glycogen synthase kinase-3 beta (Homo sapiens), sequence (P49841 whole entry, looked up): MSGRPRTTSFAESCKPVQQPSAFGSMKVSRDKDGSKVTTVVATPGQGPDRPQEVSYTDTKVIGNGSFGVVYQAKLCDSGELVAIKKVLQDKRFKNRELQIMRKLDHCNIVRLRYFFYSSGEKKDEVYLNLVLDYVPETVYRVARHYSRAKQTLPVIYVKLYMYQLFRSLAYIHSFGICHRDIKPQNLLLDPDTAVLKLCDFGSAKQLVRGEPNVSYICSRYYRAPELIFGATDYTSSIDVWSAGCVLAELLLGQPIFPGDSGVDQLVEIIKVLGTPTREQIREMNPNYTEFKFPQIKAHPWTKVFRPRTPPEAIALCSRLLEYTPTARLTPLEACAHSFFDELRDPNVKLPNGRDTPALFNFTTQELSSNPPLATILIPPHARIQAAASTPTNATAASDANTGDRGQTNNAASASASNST
Description: Inhibition of GSK3-beta at 3 to 6 uM relative to control

[10] = Metabolic stability in human liver microsomes assessed as half life; format: ADME, Microsome
[11] = target: Epithelial discoidin domain-containing receptor 1 (Homo sapiens) (UniProt Q08345); conditions: 3 to 6 uM
Epithelial discoidin domain-containing receptor 1 (Homo sapiens), sequence (Q08345 whole entry, the tested form may be a part): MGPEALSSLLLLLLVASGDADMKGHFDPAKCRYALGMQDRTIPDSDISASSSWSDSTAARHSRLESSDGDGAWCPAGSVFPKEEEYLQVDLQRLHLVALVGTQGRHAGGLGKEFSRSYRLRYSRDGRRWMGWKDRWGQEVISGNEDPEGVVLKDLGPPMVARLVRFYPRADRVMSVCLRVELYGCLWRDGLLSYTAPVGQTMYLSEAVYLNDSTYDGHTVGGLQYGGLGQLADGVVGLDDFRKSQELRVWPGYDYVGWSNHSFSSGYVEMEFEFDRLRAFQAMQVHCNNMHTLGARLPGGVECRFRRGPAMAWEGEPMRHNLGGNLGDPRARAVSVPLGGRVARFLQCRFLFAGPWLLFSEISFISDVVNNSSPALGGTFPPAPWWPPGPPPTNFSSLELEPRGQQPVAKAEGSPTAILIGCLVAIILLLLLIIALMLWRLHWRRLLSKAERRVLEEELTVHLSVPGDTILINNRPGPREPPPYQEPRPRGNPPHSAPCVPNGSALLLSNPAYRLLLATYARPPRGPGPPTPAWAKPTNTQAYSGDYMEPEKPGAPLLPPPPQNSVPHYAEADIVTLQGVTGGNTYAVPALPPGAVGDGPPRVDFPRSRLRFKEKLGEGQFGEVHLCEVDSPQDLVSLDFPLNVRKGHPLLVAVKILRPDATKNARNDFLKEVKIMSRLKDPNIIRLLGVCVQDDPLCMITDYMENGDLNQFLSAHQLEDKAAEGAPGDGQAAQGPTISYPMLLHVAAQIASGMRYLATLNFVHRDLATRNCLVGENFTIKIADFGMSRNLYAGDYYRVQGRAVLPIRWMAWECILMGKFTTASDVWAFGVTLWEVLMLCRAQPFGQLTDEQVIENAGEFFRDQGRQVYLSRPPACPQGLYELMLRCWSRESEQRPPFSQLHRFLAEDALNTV
Description: Inhibition of DDR1 at 3 to 6 uM relative to control

[12] = Solubility at pH 7.4; format: physicochemical; conditions: buffer
[13] = target: MAP kinase-activated protein kinase 5 (Homo sapiens) (UniProt Q8IW41); conditions: 3 to 6 uM
Description: Inhibition of PRAK at 3 to 6 uM relative to control

[14] = target: Inhibitor of nuclear factor kappa-B kinase subunit epsilon (Homo sapiens) (UniProt Q14164); conditions: 3 to 6 uM
Description: Inhibition of IKKE at 3 to 6 uM relative to control

[15] = target: Dual specificity tyrosine-phosphorylation-regulated kinase 1A (Homo sapiens) (UniProt Q13627); conditions: 3 to 6 uM
Description: Inhibition of DYRK1A at 3 to 6 uM relative to control

Caco-2 = assay: Permeability from apical to basolateral side in human Caco-2 cells; format: ADME, cell-based; conditions: caco-2, BLD = below limit of detection
[16] = target: Casein kinase I isoform alpha (Homo sapiens) (UniProt P48729); conditions: 3 to 6 uM
Casein kinase I isoform alpha (Homo sapiens), sequence (P48729 2-337 limits assumed): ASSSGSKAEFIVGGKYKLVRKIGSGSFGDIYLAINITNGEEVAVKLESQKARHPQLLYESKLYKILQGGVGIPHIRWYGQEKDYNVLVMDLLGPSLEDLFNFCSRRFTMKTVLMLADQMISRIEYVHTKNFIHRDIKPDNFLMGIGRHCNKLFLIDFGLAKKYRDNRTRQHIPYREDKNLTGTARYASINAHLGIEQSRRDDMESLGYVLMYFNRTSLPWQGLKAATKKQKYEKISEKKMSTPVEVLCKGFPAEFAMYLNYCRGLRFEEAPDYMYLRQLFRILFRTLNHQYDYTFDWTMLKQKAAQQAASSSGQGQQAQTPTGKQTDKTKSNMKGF
Description: Inhibition of CK1 at 3 to 6 uM relative to control

[17] = Membrane permeability by PAMPA assay; format: ADME; conditions: read-out: permeability
[18] = target: Mitogen-activated protein kinase kinase kinase 11 (Homo sapiens, UniProt Q16584); assay: Inhibition of MAP3K11
[19] = target: Serine/threonine-protein kinase 26 (Homo sapiens, UniProt Q9P289); assay: Inhibition of MST4
Serine/threonine-protein kinase 26, sequence (Q9P289 whole entry): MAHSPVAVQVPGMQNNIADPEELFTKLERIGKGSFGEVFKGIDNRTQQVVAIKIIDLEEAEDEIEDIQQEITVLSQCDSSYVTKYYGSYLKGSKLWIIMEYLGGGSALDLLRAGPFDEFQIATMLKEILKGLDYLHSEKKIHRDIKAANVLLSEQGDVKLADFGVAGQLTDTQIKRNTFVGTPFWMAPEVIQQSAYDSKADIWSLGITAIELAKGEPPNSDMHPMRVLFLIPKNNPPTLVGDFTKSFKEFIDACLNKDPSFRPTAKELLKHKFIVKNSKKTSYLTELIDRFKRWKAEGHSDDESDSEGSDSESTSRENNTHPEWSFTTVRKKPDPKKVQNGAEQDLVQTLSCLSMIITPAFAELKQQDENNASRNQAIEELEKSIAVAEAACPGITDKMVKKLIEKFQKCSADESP

[20] = target: Ribosomal protein S6 kinase alpha-5 (Homo sapiens) (UniProt O75582); conditions: 3 to 6 uM
Description: Inhibition of MSK1 at 3 to 6 uM relative to control

Serine/threonine-protein kinase N2, sequence (Q16513 whole entry, looked up): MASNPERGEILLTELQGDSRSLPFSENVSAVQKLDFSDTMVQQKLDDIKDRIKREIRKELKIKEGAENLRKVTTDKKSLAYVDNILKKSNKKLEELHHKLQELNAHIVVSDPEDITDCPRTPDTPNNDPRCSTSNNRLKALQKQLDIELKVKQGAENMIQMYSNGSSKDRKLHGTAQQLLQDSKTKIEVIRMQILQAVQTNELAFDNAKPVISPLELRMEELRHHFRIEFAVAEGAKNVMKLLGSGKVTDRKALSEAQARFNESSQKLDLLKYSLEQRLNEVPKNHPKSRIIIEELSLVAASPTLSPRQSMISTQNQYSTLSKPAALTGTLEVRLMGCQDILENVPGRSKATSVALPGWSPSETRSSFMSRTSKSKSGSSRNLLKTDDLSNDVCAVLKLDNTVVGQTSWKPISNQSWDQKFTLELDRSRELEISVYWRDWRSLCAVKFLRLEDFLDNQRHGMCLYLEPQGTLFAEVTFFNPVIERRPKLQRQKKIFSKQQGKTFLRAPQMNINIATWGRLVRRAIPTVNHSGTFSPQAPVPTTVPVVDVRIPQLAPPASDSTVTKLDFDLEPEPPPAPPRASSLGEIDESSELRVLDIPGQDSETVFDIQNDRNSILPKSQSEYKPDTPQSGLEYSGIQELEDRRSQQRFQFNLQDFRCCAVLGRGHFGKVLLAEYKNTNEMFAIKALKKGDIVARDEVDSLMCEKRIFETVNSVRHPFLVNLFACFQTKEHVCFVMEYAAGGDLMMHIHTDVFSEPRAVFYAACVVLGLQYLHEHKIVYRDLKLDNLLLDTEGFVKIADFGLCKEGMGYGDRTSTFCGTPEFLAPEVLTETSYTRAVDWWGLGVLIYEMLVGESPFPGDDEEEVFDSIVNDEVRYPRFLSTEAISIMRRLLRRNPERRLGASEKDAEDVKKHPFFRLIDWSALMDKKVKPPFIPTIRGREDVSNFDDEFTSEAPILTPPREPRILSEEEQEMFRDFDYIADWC

NC(=O)c1ccc(NC(=O)NCc2cccc(C(=O)Nc3ccc4c(c3)CNCC4)c2)cc1
residual activity [1]: 33% | residual activity [2]: > 50% | residual activity [3]: > 50% | residual activity [4]: > 50% | residual activity [5]: > 50% | residual activity [6]: > 50% | residual activity [7]: > 50% | residual activity [8]: > 50%

COc1ccc(C(=O)NCc2cccc(C(=O)Nc3ccc4c(c3)CNCC4)c2)cc1OC
residual activity [9]: > 50% | half-life [10]: 2.43 h | residual activity [11]: > 50% | solubility [12]: 49 µg/mL (≈ 110 µM) | residual activity [13]: > 50% | residual activity [14]: > 50% | residual activity [15]: > 50% | permeability (Caco-2): BLD | residual activity [16]: > 50% | Papp [17]: 3.6 ×10⁻⁶ cm/s | IC50 [18]: > 10 µM | IC50 [19]: > 10 µM | residual activity [20]: > 50%
